No end group written: not given here. *: point of attachment. Biotin = O=C1N[C@H]2[C@H](CS[C@H]2CCCCC(=O)*)N1
What was measured:
Type in all cases: binding, human
[1] = tested on: WW domains of WWP2 expressed as GST fusion proteins; assay: ELISA based cross affinity mapping, WW domains of WWP2; conditions: biotinylated peptide-streptavidin/alkaline phosphatase complex; GST fusion proteins; ELISA
Experimental: (§1) The 16 day mouse embryo cDNA expression library was diluted 1:1000 in SM solution (100 mM NaCl, 8 mM MgSOv4, 50 mM Tris HCl pH 7.5, 0.01% gelatin). To a sterile test tube, 2 μl of diluted mouse embryo library, 100 μl of 10 mM CaCl2, 100 μl of 10 mM MgCl2 and 100 μl of BL21(DE3)pLysE bacterial cells (grown overnight) were added and incubated for 30 minutes at 37° C. The contents of the tube were mixed with 3 ml of 0.6% top agarose, containing […] chloramphenicol, and poured onto a 2xYT plate (90 mm diameter). For a large primary screen, 10–20 plates were prepared with 3×10^4 pfu per plate. After 6 hours incubation at 37° C., a nitrocellulose filter soaked in 10 mM isopropyl-β-D-thiogalactopyranoside (IPTG) was overlaid on each plate and incubated 3–6 hours at 37° C. Before the filters were removed from the plates, they were marked asymmetrically with India ink in a 18 gauge syringe needle. The plates were stored at 4° C. until ready for the secondary screen. The filters were washed with PBS (137 mM NaCl, 2.7 mM KCl, 4.3 mM Na2HPO4, 1.4 mM KH2PO4)-0.05% Triton X-100 three times at room temperature, 15 minutes each wash, and then placed in a plastic bag containing non-specific blocking solution (PBS-2% BSA) for one hour. In the meantime, 1 ml of 1 mM biotinylated peptide in PBS-0.1% Tween 20 was added to 20 ml of 1 mg/ml streptavidin-alkaline phosphatase (SA-AP) in PBS-0.1% Tween 20 and incubated at 4° C. for 30 minutes. […] Excess biotin-binding sites would then be blocked by addition of 500 pmol biotin. […] Ten μl of 0.1 mM biotin would then be added, and the solution incubated for an additional 15 min.
(§2) To determine the ligand preferences of the novel WW omain-containing clones described in Sections 6.1 and 6.1.1, as well as addressing the issue of whether peptides containing PPPPY (SEQ ID NO:3)-like motifs derived from a variety of proteins could also serve as recognition units and bind to these clones, a cross affinity mapping experiment was performed (FIGS. 15A–D). The peptides shown in FIGS. 15A–D were synthesized, biotinylated, complexed with streptavidin-alkaline phosphatase, and tested in an ELISA based assay for their ability to bind to the twelve individual novel WW domains of WWP1, WWP2, WWP3 and WWP4 which were expressed as GST fusion proteins. The ELISA based cross-affinity experiments were performed essentially as described by Sparks et al. (1996, Proc. Natl. Acad. Sci. 93:1540–1544) with the following modifications. Briefly, microtiter wells were coated with 1–5 μg of fusion protein in 100 mM NaHCO3, blocked with SuperBlock TBS (Pierce) and washed four times with PBS, 0.05% Tween 20. Specific peptide-streptavidin/alkaline phosphatase complexes were added as above and unbound complexes washed five times with PBS, 0.05% Tween 20. Following addition of PNP substrate (p-nitrophenyl phosphate, Kirkegard & Perry Labs), peptide binding was quantitated after 30 min. at O.D. 405 nm. Relative binding measurements from three independent determinations were assigned to a scale as follows: O.D. units 0–0.5=(−), 0.5–1.0=(+), 1.0–2.0=(++), 2.0–3.0=(+++), >3.0=(++++). Peptide binding to human Fyn and Lyn SH3 and SH2 domains was assessed by a filter binding assay (see Section 6.1 and Sparks et al., 1996, Proc. Natl. Acad. Sci 93:1540–1544). Peptide sequences used in cross-affinity experiments correspond to segments of the following genes: RasGap (Database accession # P20936), AP-2 (P05549), p53BP-2 (U09582), IL-6Rα (P22272), voltage-gated chloride channel CLCN5 (X91906), IL-2Rγ (D111086), RSV (D10652), HTLV-1 (D13784), β-dystroglycan (L19711), Formin (X53599), amiloride-sensitive epithelial Na^+ channel ENaCα (P37089), ENaCβ (X87159) and ENaCγ (X87160), muscarinic acetylcholine receptor M4 AChR (P08173), and c-Abl (P00522). Src and Crk SH3 binding peptide sequences were derived from a phage display random peptide library screen (Section 6.1 and Sparks et al., 1996, Proc. Natl. Acad. Sci. 93:1540–1544).

[2] = tested on: WW domains of WWP4 expressed as GST fusion proteins; assay: ELISA based cross affinity mapping, WW domains of WWP4; conditions: biotinylated peptide-streptavidin/alkaline phosphatase complex; GST fusion proteins; ELISA
Experimental: as §1, §2

[3] = tested on: twelve individual novel WW domains of WWP1, WWP2, WWP3 and WWP4; assay: ELISA based cross affinity mapping, whole panel of novel WW domains; conditions: biotinylated peptide-streptavidin/alkaline phosphatase complex, GST fusion proteins
Experimental: as §1, §2

Substance | binding to WW domains of WWP2 [1] | binding to WW domains of WWP4 [2] | binding to the novel WW domains (WWP1, WWP2, WWP3, WWP4 panel) [3]
Biotin-SGSGPGTPPPPYTVGPGY [WBP-1] | specifically bind | specifically bind | bound to several individual WW domains to varying degrees
Biotin-SGSGPGTPYPPPPEFY [WBP-2B] | none of the WW domains of these proteins specifically bind | none of the WW domains of these proteins specifically bind | no binding activity
Biotin-SGSGYVQPPPPPYPGPM [WBP-2A] | specifically bind | specifically bind | bound to several individual WW domains to varying degrees
